# Results reported in patent US7741521B2, “Inhibition of bid-induced cell-death using small organic molecules” (The Burnham Institute, priority 2004, dated 2010).
# Molecular target: T1, BID (Mus musculus, UniProt P70444)
# T1 construct: poly-His (N); made in house; host or cells: E. coli BL21
# T1 sequence (P70444 1-195): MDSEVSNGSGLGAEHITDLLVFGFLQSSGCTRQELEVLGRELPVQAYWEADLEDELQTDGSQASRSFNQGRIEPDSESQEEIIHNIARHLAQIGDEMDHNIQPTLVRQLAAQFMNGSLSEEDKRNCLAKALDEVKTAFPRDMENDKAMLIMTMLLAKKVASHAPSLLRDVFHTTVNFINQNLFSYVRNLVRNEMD
# Assay: NMR binding to BID (HSQC/TROSY chemical shifts)
# Details: NMR
# Method: Recombinant full length mouse BID was produced from a pET-19b (Novagen) plasmid construct containing the entire nucleotide sequence for BID fused to an N-terminal poly-His tag. Unlabeled BID was expressed in E. coli BL21 in LB media at 37° C., with an induction period of 3-4 hours with 1 mM IPTG. ^15N-labeled BID was similarly produced, with growth occurring in M9 media supplemented with 0.5 g/L ^15NH4Cl. ε-^13C-Met labeled BID was produced in M9 media supplemented with 50 mg/L of ε-^13C-Met at time of induction with IPTG. Following cell lysis, soluble BID was purified over a Hi-Trap chelating column (Amersham, Pharmacia), followed by ion-exchange purification with a MonoQ (Amersham, Pharmacia) column. Final BID samples were dialyzed into a buffer appropriate for the subsequent experiments. tBID was produced by cleavage of purified BID with caspase-8, as known in the art.
# For all NMR experiments, BID was exchanged into 50 mM phosphate buffer at pH 7.5 and measurements were performed at 30° C. 2D [^15N,^1H]-TROSY spectra for BID were measured with 0.5 mM samples of ^15N-labeled BID. 2D [^13C,^1H]-HSQC spectra were measured with 0.2 mM samples of ε-^13C-Met labeled BID. 2D [^1H,^1H]-NOESY spectra were acquired with small molecules at a concentration of 0.9 mM in the presence of 10 μM BID. T1ρ competition experiments (200 msec spin-lock duration) were performed on either 100 μM BI-2A7 or a mixture of 100 μM BI-2A7 and 10 μM BI-6C9, in the presence and absence of 10 μM BID. All experiments were performed with either a 500 MHz or 600 MHz Bruker Avance spectrometer, both equipped with TXI probes. Typical parameters for the 2D [^15N,^1H]-TROSY spectra included ^1H and ^15N π/2 pulse lengths of 11 μsec and 40 μsec, respectively; ^1H and ^15N sweep widths of 12 ppm and 32 ppm, respectively; 16 scans and 256 indirect acquisition points and a recycle delay of 1 sec. For the 2D [^13C,^1H]-HSQC typical parameters included ^1H and ^13C π/2 pulse lengths of 10 μsec and 13 μsec, respectively; ^1H and ^13C sweep widths of 12 ppm and 5 ppm, respectively; 128 scans and 80 indirect acquisition points and a recycle delay of 1 sec. […]
# To examine the binding affinity of some compounds of the invention to BID, 2D [^13C,^1H]-HSQC spectra in presence of ^13C methionine-labeled protein were measured, as at least one methionine is present in the hydrophobic groove of BID (FIG. 4B). […]
# Monitoring the variation of cross-peak intensity upon addition of increasing amounts of compound II, allowed to estimate its dissociation constant KD. The arrow on FIG. 5C indicates the peak that was monitored to determine the Kd for compound II. […]
row,Structure (SMILES),binding to BID
1,Nc1ccc(Sc2ccc(N)cc2)cc1 [XII],weak binder

# Molecular target: T2, tBID (Mus musculus, UniProt P70444)
# T2 construct: tBID was produced by cleavage of purified BID with caspase-8, as known in the art; made in house; host or cells: E. coli BL21 (BID), then cleaved in vitro with caspase-8
# T2 sequence (P70444 60-195 limits assumed): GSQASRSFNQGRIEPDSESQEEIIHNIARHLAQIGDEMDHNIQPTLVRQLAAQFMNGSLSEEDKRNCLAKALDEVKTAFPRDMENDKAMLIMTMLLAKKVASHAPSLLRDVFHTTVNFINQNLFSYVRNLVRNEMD
# T2 sequence (P70444 1-59 partner limits assumed): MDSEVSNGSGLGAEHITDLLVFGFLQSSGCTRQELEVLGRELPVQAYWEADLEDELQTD
# Assay: tBID-induced Smac release from isolated mitochondria
# Format: biochemical
# Details: 50 μM compound; isolated mitochondria
# Method: 100 ng of tBID (cleaved by caspase 8) was pre-incubated with various concentrations of compounds for 15 minutes at 30° C. in HM buffer (10 mM Hepes, pH 7.4, 250 mM Mannitol, 10 mM KCl, 1.5 mM MgCl, 1 mM DTT, 1 mM EGTA), then 50 μg of isolated mitochondria from HCT116 cells were added to a final volume of 50 μl in HM buffer. After 1 hour incubation at 30° C., the samples were centrifuged at 10,000×g for 5 minutes at 4° C. and the supernatant was analyzed by SDS-PAGE/immunoblotting using anti-SMAC antibody.
# Compounds II-IX were tested in vitro for their ability to inhibit BID-mediated release of Smac using mitochondria isolated from HeLa cells (FIG. 6A). The first lane represents mitochondria incubated without tBID. All others received 100 ng tBID without or with compounds. Each compound was tested at a concentration of 50 μM. […] To preliminarily investigate the mechanism by which compound II reduces Smac-release from isolated mitochondria, the tBID protein was treated with different concentrations of BI-6C9, after which it was incubated with mitochondria, followed by analysis of the bound and unbound fractions by immunoblotting using BID antibody. The concentration of mitochondria-bound tBID diminished in response to increasing concentrations of compound II.
# About 50 ng of tBID cleaved by […] was pre-incubated for about 15 minutes at about 30° C. with various concentrations of compounds I, II, and X. Then, about 50 μg of isolated mitochondria from Hela cells were added to the reaction system. After about 1 hour of incubation at about 30° C., the samples were centrifuged at 10,000×g for about 5 minutes at about 4° C., and the supernatant was analyzed by SDS-PAGE/immunoblotting using Smac antibody. The results of the analysis are presented on FIG. 8. As shown by FIG. 9, compound I is a strong binder for BID.
# Some results of comparative studies of compounds I and II are shown on FIG. 10. […] The first lane represents mitochondria incubated without tBID. All others received 50 ng tBid without or with bi-dentate compound.
row,inhibition at 50 µM [%],Structure (SMILES)
1,60,"NCCCCCC(=O)Nc1ccc(Sc2ccc([N+](=O)[O-])cc2)cc1 [Compound IX, 6-amino-hexanoic acid [4-(4-nitro-phenylsulfanyl)-phenyl]-amide]"
2,16,"COc1ccc(S(=O)(=O)NCCCCCC(=O)Nc2ccc(Sc3ccc([N+](=O)[O-])cc3)cc2)cc1 [Compound V, 6-(4-methoxy-benzenesulfonylamino)-hexanoic acid [4-(4-nitro-phenylsulfanyl)-phenyl]-amide]"
3,14,"CC(C)(C)OC(=O)NCCCC(=O)Nc1ccc(Sc2ccc([N+](=O)[O-])cc2)cc1 [Compound VI, {3-[4-(4-nitro-phenylsulfanyl)-phenylcarbamoyl]-propyl}-carbamic acid tert-butyl ester]"

# The next lines start with the molecule.
row,Structure (SMILES),inhibition at 50 µM [%]
1,"COc1ccc(S(=O)(=O)NCCCC(=O)Nc2ccc(Sc3ccc([N+](=O)[O-])cc3)cc2)cc1 [Compound III, 4-(4-methoxy-benzenesulfonylamino)-N-[4-(4-nitro-phenylsulfanyl)-phenyl]-butyramide]",24
2,"NCCCC(=O)Nc1ccc(Sc2ccc([N+](=O)[O-])cc2)cc1 [Compound VII, 4-amino-N-[4-(4-nitro-phenylsulfanyl)-phenyl]-butyramide]",66
3,"CC(C)(C)OC(=O)NCCCCCC(=O)Nc1ccc(Sc2ccc([N+](=O)[O-])cc2)cc1 [Compound VIII, {5-[4-(4-nitro-phenylsulfanyl)-phenylcarbamoyl]-pentyl}-carbamic acid tert-butyl ester]",0
4,Nc1ccc(Sc2ccc(N)cc2)cc1 [XII],22
5,CNS(=O)(=O)c1ccc(C)cc1 [X],0
